Measured values published in patent US20260226071A1, “2, 4-DIANILINOPYRIMIDINE-BASED AURORA-A KINASE SELECTIVE DEGRADATION INDUCING COMPOUNDS” (UPPTHERA, INC., priority 2023, published 2026).

Columns and labels:
Aurora kinase A (AURKA) = biological target: T1, Aurora kinase A (AURKA) (Homo sapiens, UniProt O14965); test: Luciferase assay for AURKA in HeLa LgBit (AURKA-HiBit KI) cell line; format: cell-based; details: HeLa LgBit (AURKA-HiBit KI) cells, measured after 12 hours
T1 construct: endogenous in cells; host or cells: HeLa LgBit (AURKA-HiBit KI), CRISPR/Cas9 knock-in at the endogenous AURKA locus
T1 sequence (O14965 1-403): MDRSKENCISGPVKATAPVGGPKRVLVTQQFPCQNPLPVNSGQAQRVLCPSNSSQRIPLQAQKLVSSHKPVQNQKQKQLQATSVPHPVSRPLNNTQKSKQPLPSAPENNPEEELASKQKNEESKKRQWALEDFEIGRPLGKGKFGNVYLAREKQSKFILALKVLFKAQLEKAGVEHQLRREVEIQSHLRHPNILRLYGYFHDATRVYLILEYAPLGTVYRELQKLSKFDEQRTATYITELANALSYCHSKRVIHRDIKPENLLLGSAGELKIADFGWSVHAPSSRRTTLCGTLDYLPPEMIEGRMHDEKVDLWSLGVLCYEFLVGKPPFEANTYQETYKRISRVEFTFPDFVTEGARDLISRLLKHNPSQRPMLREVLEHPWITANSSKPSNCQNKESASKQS
How it was run: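 Test compounds (10 nM or 100 nM) added to AURKA-HiBit knock-in HeLa LgBit cells that had been pre-loaded with Endurazine for 2 h following an 18 h culture at 3×10^4 cells. Endogenous AURKA-HiBit level followed by luminescence (470-480 nm), measured after 12 h.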

NCI-H446 cell line = test: Cell viability assay for NCI-H446 cell line; format: cell-based; details: Homo sapiens, NCI-H446, 120 h; H446 cells, 5 days culture, EZ-Cytox; read-out: IC50 value (Level)
How it was run: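 Viability was measured by absorbance at 450 nm after 4 h with EZ-Cytox, following 5-day exposure of NCI-H446 cells (RPMI 1640, 10% FBS, 37 °C, 5% CO2) to 3-fold serial dilutions from 1000 nM down to 0.15 nM, added 24 h post-seeding.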

Structure (SMILES) | luminescence value (Level) (Aurora kinase A (AURKA); 10 nM compound) | luminescence value (Level) (Aurora kinase A (AURKA); 100 nM compound) | IC50 (NCI-H446 cell line) [µM]
CN(CC1CCN(c2ccc(NC3CCC(=O)NC3=O)cc2F)CC1)[C@H]1CC[C@H](NC(=O)c2ccc(Nc3ncc(F)c(Nc4ccc(C(=O)Nc5ccccc5Cl)cc4)n3)cc2)CC1 (stereo partly drawn) [Compound 66, N-(2-chlorophenyl)-4-[[2-[4-[[4-[[1-[4-[(2,6-dioxo-3-piperidyl)amino]-2-fluoro-phenyl]-4-piperidyl]methyl-methyl-amino]cyclohexyl]carbamoyl]anilino]-5-fluoro-pyrimidin-4-yl]amino]benzamide] | A (A is <0.3) | A (A is <0.2) | < 0.05
CC(CN1CCN(c2ccc(C3CCC(=O)NC3=O)cc2)CC1)N1CCC(NC(=O)c2ccc(Nc3ncc(F)c(Nc4ccc(C(=O)Nc5ccccc5Cl)cc4)n3)cc2)CC1 (stereo not drawn) [Compound 67, N-(2-chlorophenyl)-4-((2-((4-((1-(1-(4-(4-(2,6-dioxopiperidin-3-yl)phenyl)piperazin-1-yl)propan-2-yl)piperidin-4-yl)carbamoyl)phenyl)amino)-5-fluoropyrimidin-4-yl)amino)benzamide] | B (B is 0.3 to 0.5) | A (A is <0.2) | 0.1 to 0.15
CN(CC1CCN(c2ccc(NC3CCC(=O)NC3=O)cc2)CC1)[C@H]1CC[C@H](NC(=O)c2ccc(Nc3ncc(F)c(Nc4ccc(C(=O)Nc5ccccc5Cl)cc4)n3)cc2)CC1 (stereo partly drawn) [Compound 69, N-(2-chlorophenyl)-4-((2-((4-(((1r,4r)-4-(((1-(4-((2,6-dioxopiperidin-3-yl)amino)phenyl)piperidin-4-yl)methyl)(methyl)amino)cyclohexyl)carbamoyl)phenyl)amino)-5-fluoropyrimidin-4-yl)amino)benzamide] | A (A is <0.3) | A (A is <0.2) | 0.05 to 0.1
O=C1CCC(c2ccc(N3CCN(CCN4CCC(C(=O)Nc5ccc(Nc6ncc(F)c(Nc7ccc(C(=O)Nc8ccccc8Cl)cc7)n6)cc5)CC4)CC3)cc2)C(=O)N1 (stereo not drawn) [Compound 70, N-(4-((4-((4-((2-chlorophenyl)carbamoyl)phenyl)amino)-5-fluoropyrimidin-2-yl)amino)phenyl)-1-(2-(4-(4-(2,6-dioxopiperidin-3-yl)phenyl)piperazin-1-yl)ethyl)piperidine-4-carboxamide] | A (A is <0.3) | A (A is <0.2) | 0.05 to 0.1
O=C1CCC(c2ccc(N3CCN(CCCN4CCC(NC(=O)c5ccc(Nc6ncc(F)c(Nc7ccc(C(=O)Nc8ccccc8Cl)cc7)n6)cc5)CC4)CC3)cc2)C(=O)N1 (stereo not drawn) [Compound 71, N-(2-chlorophenyl)-4-((2-((4-((1-(3-(4-(4-(2,6-dioxopiperidin-3-yl)phenyl)piperazin-1-yl)propyl)piperidin-4-yl)carbamoyl)phenyl)amino)-5-fluoropyrimidin-4-yl)amino)benzamide] | A (A is <0.3) | A (A is <0.2) | 0.1 to 0.15
CCC(CN1CCN(c2ccc(C3CCC(=O)NC3=O)cc2)CC1)C1CCN(NC(=O)c2ccc(Nc3ncc(F)c(Nc4ccc(C(=O)Nc5ccccc5Cl)cc4)n3)cc2)CC1 (stereo not drawn) [Compound 72, N-(2-chlorophenyl)-4-((2-((4-((4-(1-(4-(4-(2,6-dioxopiperidin-3-yl)phenyl)piperazin-1-yl)butan-2-yl)piperidin-1-yl)carbamoyl)phenyl)amino)-5-fluoropyrimidin-4-yl)amino)benzamide] | B (B is 0.3 to 0.5) | A (A is <0.2) | < 0.05
O=C1CCC(Nc2ccc(N3CCN(CCN4CCC(NC(=O)c5ccc(Nc6ncc(F)c(Nc7ccc(C(=O)Nc8ccccc8Cl)cc7)n6)cc5)CC4)CC3)cc2)C(=O)N1 (stereo not drawn) [Compound 73, N-(2-chlorophenyl)-4-((2-((4-((1-(2-(4-(4-((2,6-dioxopiperidin-3-yl)amino)phenyl)piperazin-1-yl)ethyl)piperidin-4-yl)carbamoyl)phenyl)amino)-5-fluoropyrimidin-4-yl)amino)benzamide] | A (A is <0.3) | A (A is <0.2) | 0.1 to 0.15
O=C1CCC(c2ccc(N3CCN(CC[C@H]4CC[C@H](NC(=O)c5ccc(Nc6ncc(F)c(Nc7ccc(C(=O)Nc8ccccc8Cl)cc7)n6)cc5)CC4)CC3)c(F)c2)C(=O)N1 (stereo partly drawn) [Compound 74, N-(2-chlorophenyl)-4-((2-((4-(((1r,4r)-4-(2-(4-(4-(2,6-dioxopiperidin-3-yl)-2-fluorophenyl)piperazin-1-yl)ethyl)cyclohexyl)carbamoyl)phenyl)amino)-5-fluoropyrimidin-4-yl)amino)benzamide] | B (B is 0.3 to 0.5) | A (A is <0.2) | < 0.05
CN(CCN1CCN(c2ccc(C3CCC(=O)NC3=O)cc2)CC1)[C@H]1CC[C@H](NC(=O)c2ccc(Nc3ncc(F)c(Nc4ccc(C(=O)Nc5ccccc5Cl)cc4)n3)cc2)CC1 (stereo partly drawn) [Compound 75, N-(2-chlorophenyl)-4-((2-((4-(((1r,4r)-4-((2-(4-(4-(2,6-dioxopiperidin-3-yl)phenyl)piperazin-1-yl)ethyl)(methyl)amino)cyclohexyl)carbamoyl)phenyl)amino)-5-fluoropyrimidin-4-yl)amino)benzamide] | A (A is <0.3) | A (A is <0.2) | 0.05 to 0.1
CN(CC1CCN(c2ccc(C3CCC(=O)NC3=O)cc2F)CC1)[C@H]1C[C@H](NC(=O)c2ccc(Nc3ncc(F)c(Nc4ccc(C(=O)Nc5ccccc5Cl)cc4)n3)cc2)C1 (stereo partly drawn) [Compound 76, N-(2-chlorophenyl)-4-((2-((4-(((1r,3r)-3-(((1-(4-(2,6-dioxopiperidin-3-yl)-2-fluorophenyl)piperidin-4-yl)methyl)(methyl)amino)cyclobutyl)carbamoyl)phenyl)amino)-5-fluoropyrimidin-4-yl)amino)benzamide] | B (B is 0.3 to 0.5) | A (A is <0.2) | 0.05 to 0.1
O=C1CCC(c2ccc(N3CCC(CN4CC5(CC(NC(=O)c6ccc(Nc7ncc(F)c(Nc8ccc(C(=O)Nc9ccccc9Cl)cc8)n7)cc6)C5)C4)CC3)c(F)c2)C(=O)N1 (stereo not drawn) [Compound 77, N-(2-chlorophenyl)-4-((2-((4-((2-((1-(4-(2,6-dioxopiperidin-3-yl)-2-fluorophenyl)piperidin-4-yl)methyl)-2-azaspiro[3.3]heptan-6-yl)carbamoyl)phenyl)amino)-5-fluoropyrimidin-4-yl)amino)benzamide] | A (A is <0.3) | A (A is <0.2) | 0.05 to 0.1
O=C1CCC(c2ccc(N3CC4(CCN(CC5CCN(NC(=O)c6ccc(Nc7ncc(F)c(Nc8ccc(C(=O)Nc9ccccc9Cl)cc8)n7)cc6)CC5)CC4)C3)c(F)c2)C(=O)N1 (stereo not drawn) [Compound 78, N-(2-chlorophenyl)-4-[[2-[4-[[4-[[2-[4-(2,6-dioxo-3-piperidyl)-2-fluoro-phenyl]-2,7-diazaspiro[3.5]nonan-7-yl]methyl]-1-piperidyl]carbamoyl]anilino]-5-fluoro-pyrimidin-4-yl]amino]benzamide] | B (B is 0.3 to 0.5) | A (A is <0.2) | 0.05 to 0.1
